# Data as given in patent publication US11542239B2, “Elagolix sodium compositions and processes” (AbbVie Inc., priority 2018, dated 2023).
# Columns and labels:
# Assay type in all cases: physicochemical
# [1] = Particle size distribution by laser diffraction (wet dispersion); conditions: isolated amorphous elagolix sodium powder
# Description: Particle size distribution was measured by laser diffraction using a Malvern Mastersizer 2000S (Malvern Panalytical Ltd., Malvern, United Kingdom) in the wet dispersion mode. The liquid dispersion accessory was first filled with a solution of 0.025% w/v lecithin in HPLC n-heptane. After laser background intensity was measured, approximately 40 mg of sample was added directly to the liquid dispersion accessory to obtain a target laser obscuration between 5 and 22%. Particle size distribution measurement was started immediately upon addition of the sample. The following method parameters were used: Calculation theory—Mie; Measurement model—general purpose; Measurement sensitivity—normal; Dispersant refractive index—1.39; Background time—30 s; Measurement time—30 s; Stirrer speed—1500 rpm; Measurement cycle—1.
# [2] = Flow properties, Schulze ring shear tester (flow function coefficient); conditions: isolated amorphous elagolix sodium powder, ffc=σ/fc
# Description: Flow properties of each sample were characterized using a Schulze ring shear tester RST-XS (Dietmar Schulze Schuttgutmesstechnik, Wolfenbiittel, Germany). A standard annular cell of a cross-sectional area of 24 cm^2 and a volume of 30 cm^3 is used to measure the yield loci. All experiments were performed under ambient conditions immediately after the sample was removed from the sample container. During each measurement, the powder sample was first pre-sheared under a pre-consolidation stress of 1 kPa until a steady-state was reached. The pre-sheared powder was then subjected to shear under four normal stress levels of […] to obtain the yield locus (plot of shear stress at failure as a function of the normal stress). Between each shear points, the sample was pre-consolidated at 1 kPa. From the yield locus, the major principle stress (σ) and unconfined yield strength (fc) were derived by drawing two critical Mohr stress circles with the software RST-CONTROL 95 (Dietmar Schulze Schuttgiit-messtechnik, Wolfenbiittel, Germany). The major principle stress (σ) was obtained from the Mohr stress circle which is tangential to the yield locus and intersects at the point of normal and shear stresses at steady state flow. The unconfined yield strength (fc) was obtained from the Mohr stress circle which is tangential to the yield locus and runs through the origin. Flow function coefficient (ffc=σ/fc) was used to characterize the flow of the powder sample.
# [3] = Bulk density in a graduated cylinder; conditions: isolated amorphous elagolix sodium powder
# Description: The bulk density of the sample was obtained by measurement in a graduated cylinder. A 50 mL graduated cylinder (readable to 1 mL) was used in all measurement. First, the tared weight of the cylinder was obtained with a balance (readable to ±0.01 g). Sufficient amount of sample was then transferred into the cylinder, gently to avoid compaction of the sample, to a volume between 30 and 50 mL. The total weight of the sample and cylinder was then measured with the balance (readable to ±0.01 g), and the net sample weight was calculated. The bulk density is the weight of the sample divided by the apparent volume (to the nearest graduated unit).
# [4] = BET specific surface area from nitrogen adsorption isotherm; conditions: isolated amorphous elagolix sodium powder, precipitation/isolation conditions vary per example
# Description: The BET (Brunauer, Emmett and Teller) specific surface area was determined from nitrogen adsorption isotherm at 77° K using a surface area analyzer (Tristar 3020, Micromeritics, Norcross, Ga.). A sample of approximately 1-2 g was first outgassed under vacuum for 2 hours at 50° C. prior to nitrogen adsorption experiment. The multipoint measurement method was used according to USP <846>. The quantity adsorbed was measured between 0.05 and 0.3 relative pressure. A minimum of 5 data points between this pressure range was determined to obtain the specific surface area using the BET equation.
# [5] = Dry glass transition temperature of amorphous form
compound,measurement,setting,value
"COc1cccc(-c2c(C)n(Cc3c(F)cccc3C(F)(F)F)c(=O)n(C[C@H](NCCCC(=O)[O-])c3ccccc3)c2=O)c1F.[Na+] [Compound (I), sodium 4-({(1R)-2-[5-(2-fluoro-3-methoxyphenyl)-3-{[2-fluoro-6-(trifluoromethyl)phenyl]methyl}-4-methyl-2,6-dioxo-3,6-dihydropyrimidin-1(2H)-yl]-1-phenylethyl}amino)butanoate]",volume-averaged particle size Dv10,[1]; listed as Example 14,9 μm
same,volume-averaged particle size Dv10,[1]; listed as Example 15,17 μm
same,volume-averaged particle size Dv10,[1]; listed as Example 17,6 μm
same,volume-averaged particle size Dv10,[1]; listed as Example 18,204 μm
same,flow function coefficient (ffc),[2]; listed as Example 14,1.8
same,flow function coefficient (ffc),[2]; listed as Example 15,2.8
same,flow function coefficient (ffc),[2]; listed as Example 17,1.2
same,flow function coefficient (ffc),[2]; listed as Example 18,6.8
same,bulk density,[3]; listed as Example 17,0.17 g/mL
same,bulk density,[3]; listed as Example 18,0.33 g/mL
same,specific surface area,[4]; listed as Example 14,10.4 m^2/g
same,specific surface area,[4]; listed as Example 15,49.0 m^2/g
same,specific surface area,[4]; listed as Example 16,0.3 m^2/g
same,specific surface area,[4]; listed as Example 17,35.3 m^2/g
same,specific surface area,[4]; listed as Example 18,32.2 m^2/g
same,dry glass transition temperature (Tg),[5],about 108 °C
